From US20150105252A1, “SUBSTITUTED PYRAZOLES AS HERBICIDES” (E I DU PONT DE NEMOURS AND COMPANY, priority 2013, published 2015)

Legend:
kochia = test: Test C postemergence; format: in vivo, Kochia scoparia
Procedure, shortened: (§1)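 In this greenhouse assay, seeded soil (loam plus sand) or emerged seedlings in peat-vermiculite medium were treated with formulated compound. Roughly two weeks later (13–15 days), each species was scored visually relative to controls, from 0 for no effect to 100 for complete control.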

foxtail, giant = test: Test C postemergence; format: in vivo, Setaria faberii
Procedure, shortened: as §1

ryegrass, Italian = test: Test C postemergence; format: in vivo, Lolium multiflorum
Procedure, shortened: as §1

waterhemp = test: Test C postemergence; format: in vivo, Amaranthus rudis
Procedure, shortened: as §1

velvetleaf = test: Test C postemergence; format: in vivo, Abutilon theophrasti
Procedure, shortened: as §1

oat, wild = test: Test C postemergence; format: in vivo, Avena fatua
Procedure, shortened: as §1

soybean = test: Test C postemergence; format: in vivo, Glycine max
Procedure, shortened: as §1

lambsquarters [1] = test: Test C postemergence; format: in vivo, Chenopodium album
Procedure, shortened: as §1

barnyardgrass = test: Test C postemergence; format: in vivo, Echinochloa crus-galli
Procedure, shortened: as §1

lambsquarters [2] = test: Test C preemergence; format: in vivo, Chenopodium album; details: for Lambsquarters plant response rating: scale 0 to 100 (0 no effect, 100 complete control)
Procedure, shortened: as §1

galium = test: Test C postemergence; format: in vivo, Galium aparine
Procedure, shortened: as §1

pigweed = test: Test C postemergence; format: in vivo, Amaranthus retroflexus
Procedure, shortened: as §1

nutsedge, yellow = test: Test C postemergence; format: in vivo, Cyperus esculentus
Procedure, shortened: as §1

morningglory = test: Test C postemergence; format: in vivo, Ipomoea coccinea
Procedure, shortened: as §1

chickweed = test: Test C postemergence; format: in vivo, Stellaria media
Procedure, shortened: as §1

ragweed = test: Test C postemergence; format: in vivo, Ambrosia elation
Procedure, shortened: as §1

[3] = Postemergence, 31 g ai/ha, visually evaluated after 13 to 15 days
[4] = postemergence, 62 g ai/ha, scale 0 to 100
[5] = postemergence, 250 g ai/ha, scale 0 to 100 (0 no effect, 100 complete control)
[6] = postemergence, 125 g ai/ha, scale 0 to 100, 0 no effect, 100 complete control

Structure (SMILES): CCCNC(=O)c1cc(CC)n(Cc2ccnc(OC(F)F)c2)n1 [Compound 132]
- Plant response rating (scale of 0 to 100 where 0 is no effect and 100 is complete control), Kochia (kochia; [3]): 70
- Kochia plant response rating (kochia; [4]): 80
- Plant response rating, Kochia (kochia; [5]): 90
- Plant response rating, Kochia (kochia; [6]): 80
- Plant response rating (scale of 0 to 100 where 0 is no effect and 100 is complete control), Foxtail, Giant (foxtail, giant; [3]): 5
- Foxtail, Giant plant response rating (foxtail, giant; [4]): 10
- Plant response rating, Foxtail, Giant (foxtail, giant; [5]): 55
- Plant response rating, Foxtail, Giant (foxtail, giant; [6]): 35
- Plant response rating (scale of 0 to 100 where 0 is no effect and 100 is complete control), Ryegrass, Italian (ryegrass, Italian; [3]): 10
- Ryegrass, Italian plant response rating (ryegrass, Italian; [4]): 10
- Plant response rating, Ryegrass, Italian (ryegrass, Italian; [5]): 10
- Plant response rating, Ryegrass, Italian (ryegrass, Italian; [6]): 10
- Plant response rating (scale of 0 to 100 where 0 is no effect and 100 is complete control), Waterhemp (waterhemp; [3]): 35
- Waterhemp plant response rating (waterhemp; [4]): 55
- Plant response rating, Waterhemp (waterhemp; [5]): 80
- Plant response rating, Waterhemp (waterhemp; [6]): 65
- Plant response rating (scale of 0 to 100 where 0 is no effect and 100 is complete control), Velvetleaf (velvetleaf; [3]): 5
- Velvetleaf plant response rating (velvetleaf; [4]): 15
- Plant response rating, Velvetleaf (velvetleaf; [5]): 50
- Plant response rating, Velvetleaf (velvetleaf; [6]): 35
- Plant response rating (scale of 0 to 100 where 0 is no effect and 100 is complete control), Oat, Wild (oat, wild; [3]): 10
- Oat, Wild plant response rating (oat, wild; [4]): 10
- Plant response rating, Oat, Wild (oat, wild; [5]): 25
- Plant response rating, Oat, Wild (oat, wild; [6]): 10
- Plant response rating (scale of 0 to 100 where 0 is no effect and 100 is complete control), Soybean (soybean; [3]): 65
- Soybean plant response rating (soybean; [4]): 45
- Plant response rating, Soybean (soybean; [5]): 98
- Plant response rating, Soybean (soybean; [6]): 95
- Plant response rating (scale of 0 to 100 where 0 is no effect and 100 is complete control), Lambsquarters (lambsquarters [1]; [3]): 25
- Lambsquarters plant response rating (lambsquarters [1]; [4]): 55
- Plant response rating, Lambsquarters (lambsquarters [1]; [5]): 85
- Plant response rating, Lambsquarters (lambsquarters [1]; [6]): 75
- Plant response rating (scale of 0 to 100 where 0 is no effect and 100 is complete control), Barnyardgrass (barnyardgrass; [3]): 5
- Barnyardgrass plant response rating (barnyardgrass; [4]): 5
- Plant response rating, Barnyardgrass (barnyardgrass; [5]): 50
- Plant response rating, Barnyardgrass (barnyardgrass; [6]): 10
- Plant response rating (scale of 0 to 100), Lambsquarters (lambsquarters [2]; Preemergence, 250 g ai/ha): 100
- Lambsquarters plant response rating (lambsquarters [2]; preemergence, 31 g ai/ha, visual rating, 13 to 15 days): 100
- Lambsquarters plant response rating (lambsquarters [2]; preemergence, 62 g ai/ha, 13 to 15 days): 100
- Plant response rating, Lambsquarters (lambsquarters [2]; preemergence, 125 g ai/ha, 13 to 15 days, scale 0 to 100, 0 = no effect, 100 = complete control): 100
- Plant response rating (scale of 0 to 100 where 0 is no effect and 100 is complete control), Galium (galium; [3]): 55
- Galium plant response rating (galium; [4]): 60
- Plant response rating, Galium (galium; [5]): 75
- Plant response rating, Galium (galium; [6]): 60
- Plant response rating (scale of 0 to 100 where 0 is no effect and 100 is complete control), Pigweed (pigweed; [3]): 10
- Pigweed plant response rating (pigweed; [4]): 30
- Plant response rating, Pigweed (pigweed; [5]): 60
- Plant response rating, Pigweed (pigweed; [6]): 35
- Plant response rating (scale of 0 to 100 where 0 is no effect and 100 is complete control), Nutsedge, Yellow (nutsedge, yellow; [3]): 5
- Nutsedge, Yellow plant response rating (nutsedge, yellow; [4]): 10
- Plant response rating, Nutsedge, Yellow (nutsedge, yellow; [5]): 10
- Plant response rating, Nutsedge, Yellow (nutsedge, yellow; [6]): 20
- Plant response rating (scale of 0 to 100 where 0 is no effect and 100 is complete control), Morningglory (morningglory; [3]): 30
- Morningglory plant response rating (morningglory; [4]): 75
- Plant response rating, Morningglory (morningglory; [5]): 98
- Plant response rating, Morningglory (morningglory; [6]): 80
- Plant response rating (scale of 0 to 100 where 0 is no effect and 100 is complete control), Chickweed (chickweed; [3]): 75
- Chickweed plant response rating (chickweed; [4]): 70
- Plant response rating, Chickweed (chickweed; [5]): 85
- Plant response rating, Chickweed (chickweed; [6]): 75
- Plant response rating (scale of 0 to 100 where 0 is no effect and 100 is complete control), Ragweed (ragweed; [3]): 10
- Ragweed plant response rating (ragweed; [4]): 10
- Plant response rating, Ragweed (ragweed; [5]): 90
- Plant response rating, Ragweed (ragweed; [6]): 55
